Results on 68 compounds are retold here after US20170273985A1, “TRICYCLIC DERIVATIVE” (Sunovion Pharmaceuticals Inc., priority 2014, published 2017).

The target in one experiment is PDE1B (Homo sapiens, UniProt Q01064). Nature of the experiment: In vitro HTRF PDE1 inhibition assay (PDE1B). It is filed as biochemical. Conditions: Table 22. The source says:
An exemplary procedure for the in vitro Homogenous Time Resolved Fluorescence assay, which can be used to determine the inhibitory action of compounds of the invention toward PDE1 or its isoforms, follows. The HTRF PDE1 assay utilized the HTRF (Homogenous Time Resolved Fluorescence) technology, which is based on the competition between unlabeled cyclic nucleotide and cyclic nucleotide labeled with XL665 for the binding to cyclic nucleotide-specific antibody labeled with cryptate. The HTRF signal is thus inversely proportional to the concentration of cyclic nucleotide being measured. Since phosphodiesterases break down cyclic nucleotides the HTRF signal was used to determine PDE activity. The Cisbio cGMP HTRF assay kit (Cat no: 62GM2PEC) was utilized. Cyclic GMP was diluted to 200 nM in HTRF assay buffer (1 mM CaCl2, 10 mM MgCl2, 10 mM Tris-HCl, 0.1% BSA, pH 7.4). 10 μl of compound or DMSO was diluted in 200 nM cyclic GMP solution and added to wells of a 96 well white plate to give 100 nM cyclic GMP in 1% DMSO final concentration. PDE (1A3, 1B or IC) was diluted to 2× working concentration in HTRF assay buffer with 2 μg/ml calmodulin, and 10 μl was added to initiate the reaction. The plate was then incubated for 45 minutes at 37° C. d2-Labelled cyclic GMP and anti-cGMP cryptate were diluted in 50 mM phosphate buffer, 0.8 M KF, 1% Triton X100, 0.2% BSA, pH 7.0. Following incubation 10 μl d2-cGMP, then 10 μl anti cGMP cryptate were added to each well and the plate was incubated for 45 minutes at room temperature. The plate was then read on Perkin Elmer Victor at 2 different FRET readings ex/emm 340 nm/665 nm and 340 nm/615 nm. Compounds having an IC50 of <1 μM, are denoted as +++. Compounds having an IC50 of 1−10 μM, are denoted as ++. Compounds having an IC50 of 10-100 μM, are denoted as +.
In general terms: Time-resolved FRET reads energy transfer from a long-lived donor to a nearby acceptor.
As usually defined, the IC50 is the concentration at which inhibition is half-maximal. Take “2-(4-chlorophenyl)-8-isopropyl-2H-imidazo[1,5-f]oxazolo[2,3-c][1,2,4]triazin-5(3H)-one [Example 133]”: the IC50 was less than 1 µM.
Compound `CCCN1c2nn3c(C4CCOCC4)ncc3c(=O)n2CC1c1ccc(OC)cc1` (racemic) [Example 67] gave an IC50 of less than 1 µM.
Regarding `CN1c2nn3c(C4CCOCC4)ncc3c(=O)n2CC1c1ccc(Cl)cc1` (racemic) [Example 68], the IC50 is less than 1 µM.
The same measure, in the same setting: the same measure for `CCc1ccc(C2Cn3c(nn4c(C(C)C)ncc4c3=O)N2CC)cn1` (single isomer, unassigned) [Example 94]: less than 1 µM; for `CC(C)c1ncc2c(=O)n3c(nn12)N(Cc1ccccc1)CCC3` [Example 2, 1-Benzyl-9-isopropyl-1,2,3,4-tetrahydro-6H-imidazo[5,1-f]pyrimido[2,1-c][1,2,4]triazin-6-one]: less than 1 µM.
On the same count and under the same terms, the same measure for `CC(C)c1ncc2c(=O)n3c(nn12)N(CC1CCOCC1)C(C)CC3` (centres unmarked) [Example 3, 11-Methyl-10-(oxan-4-ylmethyl)-6-(propan-2-yl)-1,5,7,8,10-pentaazatricyclo[7,4,0,0,3,7]trideca-3,5,8-trien-2-one]: less than 1 µM; for `CC(C)c1ncc2c(=O)n3c(nn12)N(CCC1CCOCC1)CC3` [Example 4]: less than 1 µM; for `CC(C)c1ncc2c(=O)n3c(nn12)N(CCCC1CCOCC1)CC3` [Example 5]: less than 1 µM.
On the same count and under the same terms, with `COCCCN1CCn2c1nn1c(C(C)C)ncc1c2=O` [Example 6] the figure was less than 1 µM.
With `COCCCCN1CCn2c1nn1c(C(C)C)ncc1c2=O` [Example 7], the IC50 is less than 1 µM.
For the compound `COCCCCCN1CCn2c1nn1c(C(C)C)ncc1c2=O` [Example 8], the IC50 is less than 1 µM.
The same measure, in the same setting: with `CC(C)c1ncc2c(=O)n3c(nn12)N(CCc1ccccn1)CC3` [Example 10] the figure was less than 1 µM; with `CC(C)c1ncc2c(=O)n3c(nn12)N(CCCc1cccnc1)CC3` [Example 12], less than 1 µM; with `CC(C)c1ncc2c(=O)n3c(nn12)N(CCCc1ccncc1)CC3` [Example 13], less than 1 µM.
Same read-out and setting: with `CC(C)c1ncc2c(=O)n3c(nn12)N(C)CCC3` [Example 14] the figure was less than 1 µM; with `CCCN1CCCn2c1nn1c(C(C)C)ncc1c2=O` [Example 15], less than 1 µM.
`CCCCN1CCCn2c1nn1c(C(C)C)ncc1c2=O` [Example 17] gave an IC50 of less than 1 µM.
In the case of `CCCCCN1CCCn2c1nn1c(C(C)C)ncc1c2=O` [Example 18], the IC50 was less than 1 µM.
Still for that read-out and setting: the same measure for `CC(C)CCN1CCCn2c1nn1c(C(C)C)ncc1c2=O` [Example 19]: less than 1 µM; for `CC(C)c1ncc2c(=O)n3c(nn12)N(CCC1CC1)CCC3` [Example 20]: less than 1 µM.
On the same count and under the same terms, with `CC(C)c1ncc2c(=O)n3c(nn12)N(CCC1CCC(F)(F)CC1)CCC3` [Example 21] the figure was less than 1 µM; with `CC(C)c1ncc2c(=O)n3c(nn12)N(CCOC(F)(F)F)CCC3` [Example 22], less than 1 µM.
As for `COCCN1CCCn2c1nn1c(C(C)C)ncc1c2=O` [Example 23], the half-maximal inhibitory concentration (IC50) was less than 1 µM.
Same read-out and setting: with `CC(C)c1ncc2c(=O)n3c(nn12)N(CCN1CCOCC1)CCC3` [Example 26] the figure was less than 1 µM.
On the same count and under the same terms, the same measure for `CC(C)c1ncc2c(=O)n3c(nn12)N(CCCN1CCOCC1)CCC3` [Example 27]: less than 1 µM.
Same read-out and setting: with `CC(C)c1ncc2c(=O)n3c(nn12)N(CC(=O)N1CCOCC1)CCC3` [Example 28] the figure was 1 to 10 µM.
Compound `CC(C)c1ncc2c(=O)n3c(nn12)N(CCCC1CCOCC1)CCC3` [Example 29] displayed an IC50 of less than 1 µM.
On the same count and under the same terms, with `CC(C)c1ncc2c(=O)n3c(nn12)N(Cc1ccc(Cl)cc1)CCC3` [Example 31] the figure was less than 1 µM; with `CC(C)c1ncc2c(=O)n3c(nn12)N(Cc1cccc(C(F)(F)F)c1)CCC3` [Example 32], less than 1 µM; with `CC(C)c1ncc2c(=O)n3c(nn12)N(Cc1cccc(Cl)c1)CCC3` [Example 33], less than 1 µM.
Same read-out and setting: with `CC(C)c1ncc2c(=O)n3c(nn12)N(Cc1ccc(C(F)(F)F)cc1)CCC3` [Example 34] the figure was less than 1 µM; with `CC(C)c1ncc2c(=O)n3c(nn12)N(Cc1ccncc1)CCC3` [Example 35], less than 1 µM; with `CC(C)c1ncc2c(=O)n3c(nn12)N(Cc1cccnc1)CCC3` [Example 36], less than 1 µM.
On the same count and under the same terms, with `CC(C)c1ncc2c(=O)n3c(nn12)N(Cc1cccc(C#N)c1)CCC3` [Example 37] the figure was less than 1 µM; with `CC(C)c1ncc2c(=O)n3c(nn12)N(CCc1ccc(C#N)cc1)CCC3` [Example 38], less than 1 µM.
In turn, `CC(C)c1ncc2c(=O)n3c(nn12)N(CCCc1ccncc1)CCC3` [Example 39] gave an IC50 of less than 1 µM.
On the same count and under the same terms, the same measure for `CC(C)c1ncc2c(=O)n3c(nn12)N(CCCc1cccnc1)CCC3` [Example 40]: less than 1 µM.
The same measure, in the same setting: the same measure for `CC(C)c1ncc2c(=O)n3c(nn12)N(CCc1ccncc1)CCC3` [Example 41]: less than 1 µM; for `CC(C)c1ncc2c(=O)n3c(nn12)N(CCc1cccnc1)CCC3` [Example 42]: less than 1 µM; for `CC(C)c1ncc2c(=O)n3c(nn12)N(CCc1ccccc1F)CCC3` [Example 43]: less than 1 µM.
On the same count and under the same terms, the same measure for `CC(C)c1ncc2c(=O)n3c(nn12)N(CCc1cccc(F)c1)CCC3` [Example 44]: less than 1 µM; for `CC(C)c1ncc2c(=O)n3c(nn12)N(CCc1ccc(F)cc1)CCC3` [Example 45]: less than 1 µM.
Regarding `CC(C)c1ncc2c(=O)n3c(nn12)N(CCCc1ccccc1F)CCC3` [Example 46], the IC50 was less than 1 µM.
Same read-out and setting: the same measure for `CC(C)c1ncc2c(=O)n3c(nn12)N(CCCc1ccc(F)cc1)CCC3` [Example 47]: less than 1 µM.
Compound `COc1ccccc1CCCN1CCCn2c1nn1c(C(C)C)ncc1c2=O` [Example 48] gave an IC50 of less than 1 µM.
Compound `COc1cccc(CCCN2CCCn3c2nn2c(C(C)C)ncc2c3=O)c1` [Example 49] returned an IC50 of less than 1 µM.
Same read-out and setting: the same measure for `COc1ccc(CCCN2CCCn3c2nn2c(C(C)C)ncc2c3=O)cc1` [Example 50]: 1 to 10 µM.
Still for that read-out and setting: the same measure for `CC(C)c1ncc2c(=O)n3c(nn12)N(CC1CCOCC1)CCCC3` [Example 51]: less than 1 µM.
The same measure, in the same setting: the same measure for `CC(C)c1ncc2c(=O)n3c(nn12)N(Cc1ccc(C#N)cc1)CCCC3` [Example 52]: less than 1 µM; for `CCCCN1CCn2c1nn1c(C3CCOCC3)ncc1c2=O` [Example 53]: less than 1 µM.
As to `O=c1c2cnc(C3CCOCC3)n2nc2n1CCN2CCC1CCCC1` [Example 54], the IC50 was less than 1 µM.
Consider `O=c1c2cnc(C3CCOCC3)n2nc2n1CCN2CCc1ccc(F)cc1` [Example 57], for which the IC50 was less than 1 µM.
On the same count and under the same terms, the same measure for `N#Cc1ccc(CCN2CCn3c2nn2c(C4CCOCC4)ncc2c3=O)cc1` [Example 58]: less than 1 µM; for `N#Cc1cccc(CN2CCCn3c2nn2c(C4CCOCC4)ncc2c3=O)c1` [Example 60]: less than 1 µM.
Same read-out and setting: with `N#Cc1ccc(CN2CCCn3c2nn2c(C4CCOCC4)ncc2c3=O)cc1` [Example 61] the figure was 1 to 10 µM.
Same read-out and setting: with `O=c1c2cnc(C3CCOCC3)n2nc2n1CCCN2CCc1ccccc1` [Example 62] the figure was less than 1 µM; with `O=c1c2cnc(C3CCOCC3)n2nc2n1CCCN2CCCc1ccccc1` [Example 63], less than 1 µM; with `CC1CN(Cc2ccc(C#N)cc2)c2nn3c(C(C)C)ncc3c(=O)n2C1` (centres unmarked) [Example 65], less than 1 µM.
Consider `CCCN1c2nn3c(C4CCOCC4)ncc3c(=O)n2CC[C@@H]1c1ccc(Cl)cc1` [Example 71], for which the IC50 is less than 1 µM.
With `CC(C)c1ncc2c(=O)n3c(nn12)N(C)C(c1ccc(Cl)cc1)CC3` (centres unmarked) [Example 72], the IC50 was less than 1 µM.
On the same count and under the same terms, the same measure for `CC(C)n1ncc2c(=O)n3c(nc21)N(CC1CCOCC1)CC3` [Example 73]: less than 1 µM.
The same measure, in the same setting: with `CC(C)n1ncc2c(=O)n3c(nc21)N(Cc1ccc(C#N)cc1)CC3` [Example 74] the figure was less than 1 µM.
The same measure, in the same setting: with `CC(C)n1ncc2c(=O)n3c(nc21)N(Cc1ccc(-c2cccc(F)n2)cc1)CC3` [Example 76] the figure was less than 1 µM; with `CC(C)CN1CCCn2c1nc1c(cnn1C(C)C)c2=O` [Example 77], less than 1 µM.
`CC(C)n1ncc2c(=O)n3c(nc21)N(Cc1ccc(C(F)(F)F)cc1)CCC3` [Example 80] showed an IC50 of less than 1 µM.
`CC(C)c1ncnc2c(=O)n3c(nc12)N(Cc1ccc(C#N)cc1)CC3` [Example 82] yielded an IC50 of less than 1 µM.
On the same count and under the same terms, with `CC(C)c1ncnc2c(=O)n3c(nc12)N(Cc1ccc(C(F)(F)F)cc1)CC3` [Example 83] the figure was less than 1 µM.

Staying with this experiment, now noted: Table 25.
The compound `O=c1c2cnc(C3CCOCC3)n2nc2n1CCN2CC1CC1(F)F` (racemic) [Example 176] returned an IC50 of less than 1 µM.
